Target: T1, Human M4 (Homo sapiens, UniProt P08173)
T1 construct: Human or rat M4 cDNA, along with the chimeric G protein Gqi5, were transfected into Chinese hamster ovary (CHO-K1) cells; expressed in transfected cells; host or cells: CHO-K1 (Chinese hamster ovary, ATCC), stably co-expressing Gqi5
T1 sequence (P08173 1-479): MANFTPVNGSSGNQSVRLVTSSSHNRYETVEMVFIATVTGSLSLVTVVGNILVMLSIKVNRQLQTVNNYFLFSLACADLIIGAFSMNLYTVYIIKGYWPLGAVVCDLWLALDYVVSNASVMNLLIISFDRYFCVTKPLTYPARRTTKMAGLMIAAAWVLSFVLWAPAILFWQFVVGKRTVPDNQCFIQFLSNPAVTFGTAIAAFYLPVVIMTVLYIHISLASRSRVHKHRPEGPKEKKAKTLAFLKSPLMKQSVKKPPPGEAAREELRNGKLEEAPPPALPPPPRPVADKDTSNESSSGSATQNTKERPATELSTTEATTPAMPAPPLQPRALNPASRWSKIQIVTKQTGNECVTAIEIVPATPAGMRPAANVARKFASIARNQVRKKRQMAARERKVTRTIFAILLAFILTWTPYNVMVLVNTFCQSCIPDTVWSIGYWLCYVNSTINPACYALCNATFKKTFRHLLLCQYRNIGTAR
Test: mAChR M4 cell-based functional assay (calcium flux, decrease of EC80 acetylcholine response)
Conditions: for remaining activity at 30 µM: read-out: Human M4 Emin; for IC50: M4/Gqi5/CHO-K1 cells, decrease of response to EC80 acetylcholine
Procedure, shortened: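 CHO-K1 cells stably co-expressing M4 and chimeric Gqi5, loaded with Fluo-4 AM; calcium flux read on FDSS. Compound added at 2 s, EC20 acetylcholine at 143 s, EC80 acetylcholine at 268 s. IC50 from concentration-dependent decrease of the EC80 response, four-parameter logistic fit; 10-point 1:3 titrations.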

Structure (SMILES)	remaining activity at 30 µM (% ACh maximum at 30 μM)	IC50	Human M4 Emin (% ACh maximum at 30 μM)
FC(F)(F)c1ccccc1-c1cc(C(F)(F)F)c(N[C@H]2C[C@@H]3CN(CC4CCOCC4)C[C@@H]3C2)nn1 [Example 41, (3aR,5s,6aS)-2-((tetrahydro-2H-pyran-4-yl)methyl)-N-(4-(trifluoromethyl)-6-(2-(trifluoromethyl)phenyl)pyridazin-3-yl)octahydro-cyclopenta[c]pyrrol-5-amine]	3%	0.0136 µM	
Cc1cc(C)cc(-c2cc(C(F)(F)F)c(N[C@H]3C[C@@H]4CN(Cc5ccccn5)C[C@@H]4C3)nn2)c1 [Example 104, (3aR,5s,6aS)-N-(6-(3,5-dimethylphenyl)-4-(trifluoromethyl)pyridazin-3-yl)-2-(pyridin-2-ylmethyl)octahydro-cyclopenta[c]pyrrol-5-amine]	3%	0.328 µM	
[2H]C([2H])(C1CCOCC1)N1C[C@H]2C[C@H](Nc3nnc(-c4ccc5c(cnn5C)c4)cc3C(F)(F)F)C[C@H]2C1 [Example 144, (3aR,5s,6aS)-N-(6-(1-methyl-1H-indazol-5-yl)-4-(trifluoromethyl)pyridazin-3-yl)-2-((tetrahydro-2H-pyran-4-yl)methyl)octahydro-cyclopenta[c]pyrrol-5-amine]	3%	0.0713 µM	
Cc1c(F)cc(F)cc1-c1cc(C(F)(F)F)c(N[C@H]2C[C@@H]3CN(CC4CCOCC4)C[C@@H]3C2)nn1 [Example 46, (3aR,5s,6aS)-N-(6-(3,5-difluoro-2-methylphenyl)-4-(trifluoromethyl)pyridazin-3-yl)-2-((tetrahydro-2H-pyran-4-yl)methyl)octahydro-cyclopenta[c]pyrrol-5-amine]	4%	0.384 µM	
Cn1cc2cc(-c3cc(C(F)(F)F)c(N[C@H]4C[C@@H]5CN(CC6COCCO6)C[C@@H]5C4)nn3)ccc2n1 (stereo partly drawn) [Example 20, (3aR,5s,6aS)-2-((1,4-dioxan-2-yl)methyl)-N-(6-(2-methyl-2H-indazol-5-yl)-4-(trifluoromethyl)pyridazin-3-yl)octahydro-cyclopenta[c]pyrrol-5-amine]	3%	0.0251 µM	
N#Cc1ccc(F)c(-c2cc(C(F)(F)F)c(N[C@H]3C[C@@H]4CN(CC5CCOCC5)C[C@@H]4C3)nn2)c1 [Example 54, 4-fluoro-3-(6-(((3aR,5s,6aS)-2-((tetrahydro-2H-pyran-4-yl)methyl)octahydro-cyclopenta[c]pyrrol-5-yl)amino)-5-(trifluoro-methyl)pyridazin-3-yl)benzonitrile]	4%	0.223 µM	
[2H]C([2H])([2H])N(c1cc(C(F)(F)F)c(-c2cc(F)ccc2C)nn1)[C@H]1C[C@@H]2CN(CC3CCOCC3)C[C@@H]2C1 [Example 131, (3aR,5s,6aS)-N-(6-(5-fluoro-2-methylphenyl)-5-(trifluoromethyl)pyridazin-3-yl)-N-(methyl-d3)-2-((tetrahydro-2H-pyran-4-yl)methyl)octahydro-cyclopenta[c]pyrrol-5-amine]	2%	0.0603 µM	
FC1(F)CCN(c2cc(C(F)(F)F)c(N[C@H]3C[C@@H]4CN(CC5CCOCC5)C[C@@H]4C3)nn2)C1 [Example 141, (3aR,5s,6aS)-N-(6-(3,3-difluoropyrrolidin-1-yl)-4-(trifluoromethyl)pyridazin-3-yl)-2-((tetrahydro-2H-pyran-4-yl)methyl)octahydro-cyclopenta[c]pyrrol-5-amine]	2%	0.0083 µM	
Fc1ccc(Cl)c(-c2cc(C(F)(F)F)c(N[C@H]3C[C@@H]4CN(Cc5ccccn5)C[C@@H]4C3)nn2)c1 [Example 100, (3aR,5s,6aS)-N-(6-(2-chloro-5-fluorophenyl)-4-(trifluoromethyl)pyridazin-3-yl)-2-(pyridin-2-ylmethyl)octahydro-cyclopenta[c]pyrrol-5-amine]	4%	0.269 µM	
[2H][C@@]1(Oc2nnc(-c3cc(F)ccc3C)cc2C(F)(F)F)C[C@H]2CN(CC3CCOCC3)C[C@H]2C1 [Example 135, (3aR,5s,6aS)-5-((6-(5-fluoro-2-methylphenyl)-4-(trifluoro-methyl)pyridazin-3-yl)oxy)-2-((tetrahydro-2H-pyran-4-yl)methyl)octahydro-cyclopenta[c]pyrrole-5-d]	4%	0.622 µM	
Cc1ccc(F)cc1-c1cc(C#N)c(N[C@H]2C[C@@H]3CN(C[C@H]4COCCO4)C[C@@H]3C2)nn1 [Example 149, 3-(((3aR,5s,6aS)-2-(((S)-1,4-dioxan-2-yl)methyl)octahydro-cyclopenta[c]pyrrol-5-yl)amino)-6-(5-fluoro-2-methylphenyl)pyridazine-4-carbonitrile]	2%	0.0004 µM	
Cc1ccc(F)cc1-c1cc(C#N)c(N[C@H]2C[C@@H]3CN(C[C@@H]4CC5CCC4O5)C[C@@H]3C2)nn1 (stereo partly drawn) [Example 147, 3-(((3aR,5s,6aS)-2-(((2S)-7-oxabicyclo[2.2.1]heptan-2-yl)methyl)octahydro-cyclopenta[c]pyrrol-5-yl)amino)-6-(5-fluoro-2-methylphenyl)pyridazine-4-carbonitrile]	5%	0.0008 µM	
C[C@@H]1CCCN(c2cc(C(F)(F)F)c(N[C@H]3C[C@@H]4CN(CC5CCOCC5)C[C@@H]4C3)nn2)C1 [Example 136, (3aR,5s,6aS)-N-(6-((R)-3-methylpiperidin-1-yl)-4-(trifluoromethyl)pyridazin-3-yl)-2-((tetrahydro-2H-pyran-4-yl)methyl)octahydro-cyclopenta[c]pyrrol-5-amine]	2%	0.0206 µM	
Cc1ccc(C)c(-c2cc(C(F)(F)F)c(N[C@H]3C[C@@H]4CN(C[C@@H]5COCCO5)C[C@@H]4C3)nn2)c1 [Example 71, (3aR,5s,6aS)-2-(((R)-1,4-dioxan-2-yl)methyl)-N-(6-(2,5-dimethylphenyl)-4-(trifluoromethyl)pyridazin-3-yl)octahydro-cyclopenta[c]pyrrol-5-amine]	3%	0.183 µM	
Cn1cc2cc(-c3cc(C#N)c(N[C@H]4C[C@@H]5CN(C[C@@H]6COCCO6)C[C@@H]5C4)nn3)ccc2n1 [Example 157, 3-(((3aR,5s,6aS)-2-(((R)-1,4-dioxan-2-yl)methyl)octahydro-cyclopenta[c]pyrrol-5-yl)amino)-6-(2-methyl-2H-indazol-5-yl)pyridazine-4-carbonitrile]	5%	0.0549 µM	
CC(C)(C)CCN1C[C@H]2C[C@H](Nc3ncc(-c4cc(F)ccc4Cl)cn3)C[C@H]2C1 [Example 15, (3aR,5s,6aS)-N-(5-(2-chloro-5-fluorophenyl)pyrimidin-2-yl)-2-(3,3-dimethylbutyl)octahydro-cyclopenta[c]pyrrol-5-amine]	3%	3.33 µM	
[2H]C([2H])(C1CCOCC1)N1C[C@H]2C[C@H](Nc3nnc(-c4ccccc4)cc3C(F)(F)F)C[C@H]2C1 [Example 108, (3aR,5s,6aS)-N-(6-phenyl-4-(trifluoromethyl)pyridazin-3-yl)-2-((tetrahydro-2H-pyran-4-yl)methyl-d2)octahydro-cyclopenta[c]pyrrol-5-amine]	3%	0.0412 µM	
Cc1ccc(F)cc1-c1cc(C#N)c(N[C@H]2C[C@@H]3CN(C[C@@H]4COCCO4)C[C@@H]3C2)nn1 [Example 150, 3-(((3aR,5s,6aS)-2-(((R)-1,4-dioxan-2-yl)methyl)octahydro-cyclopenta[c]pyrrol-5-yl)amino)-6-(5-fluoro-2-methylphenyl)pyridazine-4-carbonitrile]	3%	0.0305 µM	
FC(F)(F)c1cc(-c2cccnc2)nnc1N[C@H]1C[C@@H]2CN(CC3CCOCC3)C[C@@H]2C1 [Example 68, (3aR,5s,6aS)-N-(6-(pyridin-3-yl)-4-(trifluoro-methyl)pyridazin-3-yl)-2-((tetrahydro-2H-pyran-4-yl)methyl)octahydro-cyclopenta[c]pyrrol-5-amine]	3%	0.161 µM	
C[C@H]1CCCN(c2cc(C(F)(F)F)c(N[C@H]3C[C@@H]4CN(CC5CCOCC5)C[C@@H]4C3)nn2)C1 [Example 6, (3aR,5s,6aS)—N-(6-((S)-3-methylpiperidin-1-yl)-4-(trifluoromethyl)pyridazin-3-yl)-2-((tetrahydro-2H-pyran-4-yl)methyl)octahydrocyclopenta[c]pyrrol-5-amine]		1.22 µM	4%
Cc1ccc(F)cc1-c1cc(C(F)(F)F)c(N[C@H]2C[C@@H]3CN(C[C@@H]4COCCO4)C[C@@H]3C2)nn1 [Example 21, (3aR,5s,6aS)-2-(((R)-1,4-dioxan-2-yl)methyl)-N-(6-(5-fluoro-2-methylphenyl)-4-(trifluoromethyl)pyridazin-3-yl)octahydro-cyclopenta[c]pyrrol-5-amine]	3%	0.0312 µM	

Source: US20230183219A1, “CONDENSED SUBSTITUTED HYDROPYRROLES AS ANTAGONISTS OF THE MUSCARINIC ACETYLCHOLINE RECEPTOR M4” (Vanderbilt University, priority 2020, published 2023)
